Laboratory results reported in ChEMBL document CHEMBL1137198, “Discovery of thiadiazoles as a novel structural class of potent and selective PDE7 inhibitors. Part 2: metabolism-directed optimization studies towards orally bioavailable derivatives” (Bioorg Med Chem Lett, 2004).
Converted amounts (≈) assume the structure as drawn. Values belong to the compound of their own block, whether it stands above or below them.

Columns and labels:
[1] = Half life at 2.5 mg/kg po.; type: ADME, organism-based; design: dose 2.5 mg/kg; conditions: in vivo
[2] = Oral bioavailability (dose 2.5 mg/kg); type: ADME, organism-based; conditions: eutheria, in vivo
[3] = Volume of distribution at 0.5 mg/kg i.v.; type: ADME, organism-based; design: dose 0.5 mg/kg, route intravenous; conditions: in vivo, iv
[4] = Clearance at 0.5 mg/kg i.v.; type: ADME, organism-based; design: dose 0.5 mg/kg, route intravenous; conditions: in vivo, iv
[5] = Solubility at pH 7.4; type: physicochemical; conditions: buffer
[6] = Reduction in Clearance when compared with compound 1; type: ADME, organism-based; conditions: in vivo
[7] = Reduction in clearance when compared with compound 1; type: ADME, organism-based; conditions: in vivo
[8] = Inhibition of human Phosphodiesterase 7A1 or human phosphodiesterase 4D3 expressed in baculovirus infected Sf9 cells

Structure (SMILES): Cn1nc(-c2ccc(C(=O)NC(C)(C)CO)cc2)s/c1=N\C1CCCC(O)C1 (centres undefined)
half-life [1]: 0.46 h | bioavailability [2]: 63% | Vd ([3]; read-out: Vd): 0.43 L/kg | clearance [4]: 24.9 mL/min/kg | solubility ([5]; read-out: Solubility): 58 µg/mL (≈ 143 µM) | CL_Ratio [6]: 86%

Structure (SMILES): Cn1nc(-c2ccc(C(N)=O)cc2)s/c1=N\C1CCCCC1
Vd ([3]; read-out: Vd): 7.65 L/kg | clearance [4]: 179 mL/min/kg | solubility ([5]; read-out: Solubility): 4 µg/mL (≈ 12.6 µM)

Structure (SMILES): Cn1nc(-c2ccc(C(N)=O)cc2)s/c1=N\C1CCC(O)CC1 (centres undefined)
half-life [1]: 0.27 h | bioavailability [2]: 7% | Vd ([3]; read-out: Vd): 0.98 L/kg | clearance [4]: 66.9 mL/min/kg | CL_Ratio [7]: 62%

Structure (SMILES): CN1CCN(C(=O)c2ccc(-c3nn(C)/c(=N/C4CCCCC4)s3)cc2)CC1
half-life [1]: 1.37 h | bioavailability [2]: 85% | Vd ([3]; read-out: Vd): 2.59 L/kg | clearance [4]: 44.8 mL/min/kg | solubility ([5]; read-out: Solubility): 350 µg/mL (≈ 876 µM) | CL_Ratio [6]: 75%

Structure (SMILES): Cn1nc(-c2cccc(C#N)c2)s/c1=N\c1cccc(C(=O)O)c1
half-life [1]: 4.75 h | bioavailability [2]: 37% | Vd ([3]; read-out: Vd): 0.99 L/kg | clearance [4]: 2.65 mL/min/kg | solubility ([5]; read-out: Solubility): 295 µg/mL (≈ 877 µM)

Structure (SMILES): Cn1nc(-c2ccc(S(C)(=O)=O)cc2)s/c1=N\c1cccc(C(=O)O)c1
half-life [1]: 2.7 h | bioavailability [2]: 29.3% | Vd ([3]; read-out: Vd): 7.58 L/kg | clearance [4]: 15.8 mL/min/kg | solubility ([5]; read-out: Solubility): 370 µg/mL (≈ 950 µM)

Structure (SMILES): Cn1nc(-c2ccc(S(C)(=O)=O)cc2)s/c1=N\C1CCCC(O)C1 (stereo in doubt; 21a 9(R,R))
T1/2 [1]: 2.5 h | Vd [3]: 0.62 L/kg | Cl [4]: 15.1 mL/min/kg | solubility [5]: 160 µg/mL (≈ 435 µM) | CL_Ratio [6]: 91%

Structure (SMILES): Cn1nc(-c2ccc(C(N)=O)cc2)s/c1=N\C1CCCC(O)C1 (stereo in doubt; cis)
half-life [1]: 1.42 h | F [2]: 61.2% | Vd ([3]; read-out: Vd): 1.39 L/kg | clearance [4]: 34.4 mL/min/kg | CL_Ratio [7]: 81% | IC50 [8]: 1650 nM

Structure (SMILES): Cn1nc(-c2ccc(C(N)=O)cc2)s/c1=N\C1CCCCC1O (stereo in doubt; trans)
half-life [1]: 0.31 h | bioavailability [2]: 24.7% | Vd ([3]; read-out: Vd): 1.47 L/kg | clearance [4]: 38.2 mL/min/kg | CL_Ratio [7]: 79%

Now from value to compound:

half-life [1]: 1.96 h | bioavailability [2]: 49.3% | Vd ([3]; read-out: Vd): 0.18 L/kg | clearance [4]: 3.9 mL/min/kg | solubility ([5]; read-out: Solubility): 145 µg/mL (≈ 399 µM)
Structure (SMILES): Cn1nc(-c2ccc(Cl)cc2)s/c1=N\c1ccc(F)c(C(=O)O)c1

half-life [1]: 0.74 h | bioavailability [2]: 19.6% | Vd ([3]; read-out: Vd): 3.3 L/kg | clearance [4]: 74.7 mL/min/kg | solubility ([5]; read-out: Solubility): 8 µg/mL (≈ 24.2 µM) | CL_Ratio [6]: 58%
Structure (SMILES): CC(=O)Nc1ccc(-c2nn(C)/c(=N/C3CCCCC3)s2)cc1

half-life [1]: 2 h | bioavailability [2]: 100% | Vd ([3]; read-out: Vd): 0.92 L/kg | clearance [4]: 12.2 mL/min/kg | solubility ([5]; read-out: Solubility): 135 µg/mL (≈ 367 µM) | CL_Ratio [6]: 93%
Structure (SMILES): Cn1nc(-c2ccc(S(C)(=O)=O)cc2)s/c1=N\C1CCCC(O)C1 (stereo in doubt)

T1/2 [1]: 1.8 h | F [2]: 38.5% | Vd [3]: 1.78 L/kg | Cl [4]: 59.9 mL/min/kg | CL_Ratio [7]: 67%
Structure (SMILES): Cn1nc(-c2ccc(C(N)=O)cc2)s/c1=N\C1CCCC(O)C1 (stereo in doubt; trans)

half-life [1]: 2.3 h | bioavailability [2]: 76% | Vd ([3]; read-out: Vd): 2.02 L/kg | clearance [4]: 13.3 mL/min/kg | solubility ([5]; read-out: Solubility): 350 µg/mL (≈ 1010 µM) | CL_Ratio [6]: 92%
Structure (SMILES): CC(=O)Nc1ccc(-c2nn(C)/c(=N/C3CCCC(O)C3)s2)cc1 (trans isomer)
